From US12600709B2, “Nonpeptide somatostatin type 5 receptor agonists and uses thereof” (Crinetics Pharmaceuticals, Inc., priority 2019, dated 2026)

Target: T1, human somatostatin receptor subtype 5 (Homo sapiens, UniProt P35346)
T1 construct: expressed in transfected cells
Experiment: cAMP assay for SST5R (inhibition of cAMP in CHO-K1 cells)
Format: cell-based
Settings: Table A; inhibition of cAMP via human SST5 receptor; read-out: SST5 potency
Excerpt: General overview: All five SSTR subtypes are Gi coupled G-protein coupled receptors (GPCRs) that lead to decreases in intracellular cyclic AMP (cAMP) when activated by an agonist. Therefore, measurement of intracellular cAMP levels can be used to assess whether compounds of the invention are agonists of SSTR subtypes (John Kelly, Troy Stevens, W. Joseph Thompson, and Roland Seifert, Current Protocols in Pharmacology, 2005, 2.2.1-2.2). One example of an intracellular cAMP assay is described below.
cAMP Assay Protocol for SST5R:
Four days prior to the assay, 2,000 Chinese hamster ovary cells (CHO-K1, ATCC #CCL-61) stably expressing the human somatostatin receptor subtype 5 are plated in each well of a 96-well tissue culture-treated plate in Ham's F12 growth media (ThermoFisher #10-080-CM) supplemented with 10% donor bovine serum (Gemini Bio-Products #100-506), 100 U/mL penicillin; 100 µg/mL streptomycin; 2 mM L-glutamine (Gemini Bio-Products #400-110) and 0.25 mg/mL G418 Sulfate (GoldBio #108321-42-2). The cells are cultured at 37° C., 5% CO2 and 95% humidity. On the day of the assay, the media is aspirated and the cells are treated with 50 μL of 1.6 μM NKH477 (Sigma #N3290) plus various dilutions of compounds of the invention in assay buffer [1× Hank's Balanced Salt Solution (ThermoFisher #SH3058802), 0.5 mM HEPES pH 7.4, 0.1% bovine serum albumin, 0.2 mM 3-Isobutyl-1-methylxanthine (IBMX, VWR #200002-790)]. The cells are incubated for 20 minutes at 37° C. […] The cells are treated with 50 μL of lysis buffer (HRTF cAMP kit, Cisbio) for 30 minutes and then the lysate is diluted to 250 μL with assay buffer. The lysate is transferred to 384-well plates and cAMP detection and visualization antibodies are added and incubated for 1-24 hours at room temperature. The time-resolved fluorescent signal is read with a Tecan M1000Pro multiplate reader. The intracellular cAMP concentrations are calculated by regression to a standard curve and are plotted vs. the concentration of the compounds of the invention and the EC50 of the compounds are calculated using standard methods. All data manipulations are in GraphPad Prism v6 or v7.

T1 sequence (P35346 whole entry): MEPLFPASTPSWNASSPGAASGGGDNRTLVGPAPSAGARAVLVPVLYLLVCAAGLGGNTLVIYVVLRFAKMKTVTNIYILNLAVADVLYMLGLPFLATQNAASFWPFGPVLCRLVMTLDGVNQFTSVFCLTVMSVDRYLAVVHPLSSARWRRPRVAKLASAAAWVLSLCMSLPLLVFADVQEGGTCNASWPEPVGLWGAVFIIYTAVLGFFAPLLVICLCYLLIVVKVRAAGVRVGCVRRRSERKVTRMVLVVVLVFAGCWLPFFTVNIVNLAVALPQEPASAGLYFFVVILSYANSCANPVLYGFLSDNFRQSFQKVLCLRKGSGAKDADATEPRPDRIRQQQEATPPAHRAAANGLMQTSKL

SMILES | EC50
N#Cc1ncc(C(=O)NC23CC(C2)C3)c(N2CC[C@](N)(CO)C2)c1-c1cc(F)cc(F)c1 (single isomer, unassigned) [1-99] | > 1 µM
N#Cc1ncc(C(=O)NC23CC(C2)C3)c(N2C[C@H](N)[C@@H](F)C2)c1-c1cc(F)cc(F)c1 (single isomer, unassigned) [1-102] | 0.01 to 0.1 µM
C[C@H](NC(=O)c1cnc(C#N)c(-c2cc(F)cc(F)c2)c1N1CC[C@@](N)(CC(F)F)C1)C1CC1 (single isomer, unassigned) [1-119] | 0.1 to 1 µM
C[C@H](NC(=O)c1cnc(C#N)c(-c2cc(F)cc(F)c2)c1N1C[C@H](N)[C@@H](F)C1)C1CC1 (single isomer, unassigned) [1-136] | 0.01 to 0.1 µM
C[C@H](NC(=O)c1cnc(C#N)c(-c2cc(F)cc(F)c2)c1N1CC[C@](N)(CF)C1)C1CC1 (single isomer, unassigned) [1-221] | 0.01 to 0.1 µM
COc1ncc(C(=O)N[C@@H](C)C(F)(F)F)c(N2CC[C@](C)(N)C2)c1Br (single isomer, unassigned) [1-274] | > 1 µM
N#Cc1cccc(-c2cncc(C(=O)NC3CCCCC3)c2N2CC[C@H](N)C2)c1 [1-7, 4-[(3S)-3-aminopyrrolidin-1-yl]-5-(3-cyanophenyl)-N-cyclohexylpyridine-3-carboxamide] | 0.1 to 1 µM
CC1(NC(=O)c2cncc(-c3cccc(C#N)c3)c2N2CC[C@H](N)C2)CCC1 [1-8, 4-[(3S)-3-aminopyrrolidin-1-yl]-5-(3-cyanophenyl)-N-(1-methylcyclobutyl)pyridine-3-carboxamide] | 0.1 to 1 µM
N#Cc1cccc(-c2cncc(C(=O)NCc3ccccc3)c2N2CC[C@H](N)C2)c1 [1-9, 4-[(3S)-3-aminopyrrolidin-1-yl]-N-benzyl-5-(3-cyanophenyl)pyridine-3-carboxamide] | 0.1 to 1 µM
Cc1cc(F)cc(-c2cncc(C(=O)NC3C4CC5CC(C4)CC3C5)c2N2CC[C@](C)(N)C2)c1 (stereo partly drawn) [1-18, N-(adamantan-2-yl)-4-[(3S)-3-amino-3-methylpyrrolidin-1-yl]-5-(3-fluoro-5-methylphenyl)pyridine-3-carboxamide] | 0.01 to 0.1 µM
C[C@]1(N)CCN(c2c(C(=O)NC3CC3)cncc2-c2cc(F)cc(F)c2)C1 [1-23, 4-[(3S)-3-amino-3-methylpyrrolidin-1-yl]-N-cyclopropyl-5-(3,5-difluorophenyl)pyridine-3-carboxamide] | 0.01 to 0.1 µM
C[C@]1(N)CCN(c2c(C(=O)NCC(F)(F)F)cncc2-c2cc(F)cc(F)c2)C1 [1-28, 4-[(3S)-3-amino-3-methylpyrrolidin-1-yl]-5-(3,5-difluorophenyl)-N-(2,2,2-trifluoroethyl)pyridine-3-carboxamide] | 0.01 to 0.1 µM
CC(C)(C)NC(=O)c1cncc(-c2cc(F)cc(F)c2)c1N1CC[C@](C)(N)C1 [1-29, 4-[(3S)-3-amino-3-methylpyrrolidin-1-yl]-N-tert-butyl-5-(3,5-difluorophenyl)pyridine-3-carboxamide] | 0.01 to 0.1 µM
COCC1(N)CCN(c2c(C(=O)NC34CC(C3)C4)cncc2-c2cc(F)cc(F)c2)C1 (centres unmarked) [1-36, 4-[3-amino-3-(methoxymethyl)pyrrolidin-1-yl]-N—{bicyclo[1.1.1]pentan-1-yl}-5-(3,5-difluorophenyl)pyridine-3-carboxamide] | 0.01 to 0.1 µM
N[C@@H]1CN(c2c(C(=O)NC34CC(C3)C4)cncc2-c2cc(F)cc(F)c2)C[C@H]1F [1-37, 4-[(3R,4R)-3-amino-4-fluoropyrrolidin-1-yl]-N-{bicyclo[1.1.1]pentan-1-yl}-5-(3,5-difluorophenyl)pyridine-3-carboxamide] | 0.01 to 0.1 µM
CC(C)C(NC(=O)c1cncc(-c2cc(F)cc(F)c2)c1N1CC[C@](C)(N)C1)C(C)C [1-39, 4-[(3S)-3-amino-3-methylpyrrolidin-1-yl]-5-(3,5-difluorophenyl)-N-(2,4-dimethylpentan-3-yl)pyridine-3-carboxamide] | 0.1 to 1 µM
CC(C)(NC(=O)c1cncc(-c2cc(F)cc(F)c2)c1N1CC[C@](C)(N)C1)C1CC1 [1-40, 4-[(3S)-3-amino-3-methylpyrrolidin-1-yl]-N-(2-cyclopropylpropan-2-yl)-5-(3,5-difluorophenyl)pyridine-3-carboxamide] | 0.01 to 0.1 µM
CC(C)C(NC(=O)c1cncc(-c2cc(F)cc(F)c2)c1N1CC[C@](C)(N)C1)C(F)(F)F (stereo partly drawn) [1-45, 4-[(3S)-3-amino-3-methylpyrrolidin-1-yl]-5-(3,5-difluorophenyl)-N-(1,1,1-trifluoro-3-methylbutan-2-yl)pyridine-3-carboxamide] | < 0.01 µM
CC(C)CNC(=O)c1cncc(-c2cc(F)cc(F)c2)c1N1CC[C@](C)(N)C1 [1-46, 4-[(3S)-3-amino-3-methylpyrrolidin-1-yl]-5-(3,5-difluorophenyl)-N-(2-methylpropyl)pyridine-3-carboxamide] | < 0.01 µM

Other lines, results leading:

EC50 | SMILES
< 0.01 µM | C[C@]1(N)CCN(c2c(C(=O)N[C@@H]3CCCC[C@H]3F)cncc2-c2cc(F)cc(F)c2)C1 (mixture of isomers) [1-52, 4-[(3S)-3-amino-3-methylpyrrolidin-1-yl]-5-(3,5-difluorophenyl)-N-[trans-2-fluorocyclohexyl]pyridine-3-carboxamide]
< 0.01 µM | C[C@]1(N)CCN(c2c(C(=O)N[C@@H]3CCCC[C@@H]3F)cncc2-c2cc(F)cc(F)c2)C1 (mixture of isomers) [1-83, 4-[(3S)-3-amino-3-methylpyrrolidin-1-yl]-5-(3,5-difluorophenyl)-N-[cis-2-fluorocyclohexyl]pyridine-3-carboxamide]
< 0.01 µM | C[C@H](NC(=O)c1cnc(C#N)c(-c2cc(F)cc(Cl)c2)c1N1C[C@H](N)[C@@H](F)C1)C1CC1 (single isomer, unassigned) [1-139]
< 0.01 µM | C[C@H](NC(=O)c1cnc(C#N)c(-c2cc(F)cc(F)c2)c1N1CC[C@@](N)(CF)C1)C1CC1 (single isomer, unassigned) [1-220]
< 0.01 µM | Cc1cc(C)cc(-c2cncc(C(=O)NC3CCCC(F)(F)C3)c2N2CC[C@](C)(N)C2)c1 (stereo partly drawn) [1-14, 4-[(3S)-3-amino-3-methylpyrrolidin-1-yl]-N-(3,3-difluorocyclohexyl)-5-(3,5-dimethylphenyl)pyridine-3-carboxamide]
< 0.01 µM | Cc1cc(F)cc(-c2cncc(C(=O)NC3(C(F)(F)F)CCCC3)c2N2CC[C@](C)(N)C2)c1 [1-15, 4-[(3S)-3-amino-3-methylpyrrolidin-1-yl]-5-(3-fluoro-5-methylphenyl)-N-[1-(trifluoromethyl)cyclopentyl]pyridine-3-carboxamide]
< 0.01 µM | Cc1cc(F)cc(-c2cncc(C(=O)NCC3CC3)c2N2CC[C@](C)(N)C2)c1 [1-26, 4-[(3S)-3-amino-3-methylpyrrolidin-1-yl]-N-(cyclopropylmethyl)-5-(3-fluoro-5-methylphenyl)pyridine-3-carboxamide]
< 0.01 µM | Cc1cc(F)cc(-c2cncc(C(=O)Nc3ccn(C)n3)c2N2CC[C@](C)(N)C2)c1 [1-27, 4-[(3S)-3-amino-3-methylpyrrolidin-1-yl]-5-(3-fluoro-5-methylphenyl)-N-(1-methyl-1H-pyrazol-3-yl)pyridine-3-carboxamide]
< 0.01 µM | CC1(CNC(=O)c2cncc(-c3cc(F)cc(F)c3)c2N2CC[C@](C)(N)C2)CC1 [1-32, 4-[(3S)-3-amino-3-methylpyrrolidin-1-yl]-5-(3,5-difluorophenyl)-N-[(1-methylcyclopropyl)methyl]pyridine-3-carboxamide]
< 0.01 µM | C[C@]1(N)CCN(c2c(C(=O)NCC3CCC3)cncc2-c2cc(F)cc(F)c2)C1 [1-33, 4-[(3S)-3-amino-3-methylpyrrolidin-1-yl]-N-(cyclobutylmethyl)-5-(3,5-difluorophenyl)pyridine-3-carboxamide]
< 0.01 µM | CC(C)C(C)NC(=O)c1cncc(-c2cc(F)cc(F)c2)c1N1CC[C@](C)(N)C1 (stereo partly drawn) [1-38, 4-[(3S)-3-amino-3-methylpyrrolidin-1-yl]-5-(3,5-difluorophenyl)-N-(3-methylbutan-2-yl)pyridine-3-carboxamide]
< 0.01 µM | C[C@]1(N)CCN(c2c(C(=O)NCC3CC3(F)F)cncc2-c2cc(F)cc(F)c2)C1 (stereo partly drawn) [1-42, 4-[(3S)-3-amino-3-methylpyrrolidin-1-yl]-N-[(2,2-difluorocyclopropyl)methyl]-5-(3,5-difluorophenyl)pyridine-3-carboxamide]
< 0.01 µM | CC1(C)CC1CNC(=O)c1cncc(-c2cc(F)cc(F)c2)c1N1CC[C@](C)(N)C1 (stereo partly drawn) [1-43, 4-[(3S)-3-amino-3-methylpyrrolidin-1-yl]-5-(3,5-difluorophenyl)-N-[(2,2-dimethylcyclopropyl)methyl]pyridine-3-carboxamide]
